Consider one compound from patent publication US7638554B2, “Flavanoids as chemotherapeutic, chemopreventive, and antiangiogenic agents” (SRI International, priority 2002, dated 2009).

Assay [1] relates to ovarian cancer cell line OVCAR-4. The experiment in a line: Growth inhibition, sulforhodamine-based protein determination, OVCAR-4. The assay is classed as cell-based. Particulars: Homo sapiens, OVCAR-4, 144 h; continuous exposure six days. The protocol: (§1) The novel compound SR 13179 was assayed for its ability to inhibit growth in several cancer cell lines. The cell lines studied included breast cancer cell line MCF-7 (ER+); prostate cancer cell lines LNCaP, PC3, and DU145; lung cancer cell line A427; ovarian cancer cell lines IGROV1, OVCAR-3, OVCAR-4, OVCAR-5, OVCAR-8, and SK-OV-3; and colon cancer cell lines COLO 205, HCC-2998, HCT-116, HCT-15, HT29, KM12, AND SW-620.
(§2) The growth assays for the breast cancer cell lines were conducted according to the method of Example 16. For the other cell lines, each assay was conducted with continuous exposure to the test compound at four log concentrations for six days, using a sulforhodamine-based protein determination to measure growth inhibition.

The subject of assay [2] is MCF-10CA1a breast cancer cells. Put plainly: Boyden-chamber Matrigel invasion/migration assay, MCF-10CA1a. The format is cell-based, human. The protocol: Cell Culture. MCF-10CA1a cells were cultured in Dulbecco's Modified Eagle Medium (DMEM) supplemented with 5% bovine serum, 2 mM glutamine and 1 mM non-essential amino acids. MDA-MB231 cells were grown in DMEM supplemented with 5% bovine serum. Cells were routinely maintained in a 5% CO2 incubator at 37° C.
General Procedure for Invasion Assay. MCF 10-CA1a or MDA-MB-231 breast cancer cells were treated with 1 or 5 μM of the compound being tested for 8 h. Cells were removed by trypsinizing and tested for their invasiveness by Boyden-chamber invasion assay. In the in vitro invasion/migration assays, a standard Matrigel-based assay, according to the manufacturer's (Becton-Dickinson) protocol, was used. Rehydrated Matrigel and control inserts were added to Falcon TC companion plates containing human fibronectin (30 μg/ml) as chemoattractant. Cellular suspensions (2×10^4 cells/0.5 ml) were added to individual wells of 24-well chambers (containing either control or Matrigel inserts), and the plates incubated (37° C., 5% CO2) in the presence of the compound being tested or vehicle for an additional 16-18 h. Non-invading or non-migrating cells were removed by scraping the top surfaces of the Matrigel and control inserts, respectively. The invading (or migrating) cells (on the bottom surface) were fixed (3.7% formaldehyde) and stained with Accustain (Sigma). The percent invasion was calculated as mean number of invading cells/the mean number of cells migrating through a control membrane×100.
The in vitro invasion through Matrigel was studied for two human breast cancer lines: MCF-10CA1a, a highly metastatic ER^+ line and MDA-MB-231, an ER^− line. […] At this concentration, SR13179 inhibited invasion of MDA-MB-231 by about 30% (and by 70% at 5 μM). To rule out a cytotoxic effect in the inhibition of invasion, a concurrent cytotoxicity assay was carried out and the number of viable cells was determined by MTT assay. There was less than 5% decrease in MDA-MB-231 cell viability at 5 μM concentration of SR13179 at 22 h. […]

For assay [3], the system named is ovarian cancer cell line OVCAR-8. Put plainly: Growth inhibition, sulforhodamine-based protein determination, OVCAR-8. Particulars: Homo sapiens, OVCAR-8, 144 h; continuous exposure six days. The assay is classed as cell-based. The procedure: as §1, §2
Assay [4] deals with MMP-9. Put plainly: Western blotting of cell-associated MMP-9 protein, MCF-10-CA1a cells. The format is cell-based, human. Particulars: 1, 3, or 5 μM, 48 h. The source says: (§3) Western Blotting. Proteins were separated by gel electrophoresis using 4-12% pre-cast SDS-polyacrylamide gels (Invitrogen, Carlsbad, Calif.) and then electrophoretically transferred onto Hybond™-P membrane (Amersham Biosciences, Piscataway, N.J.). Blots were probed with specific antibodies (Santa Cruz Biotechnology, Inc). The ECL Plus Western Blotting Detection System of Amersham Biosciences (Piscataway, N.J.) and the procedure recommended by the manufacturer was used for the detection of antigens. Protein bands were quantified by analyzing the images obtained using an Alphaimager™ S-3400 (Alpha Innotech Corp., San Leandro, Calif.).
The effect of SR 13179 on cell-associated MMP-2 and MMP-9 protein levels was studied. MCF-10-CA1a cells were treated with SR 13179 at 1, 3, or 5 μM concentrations for 48 h. Untreated cells were used as control. Proteins were separated by SDS-Polyacrylamide gel electrophoresis and electrophoretically transformed onto Hybond™ P membrane (Amerhsam Biosciences). Blots were probed with specific antibodies (Santa Cruz Biotechnology Inc.).

In assay [5] the test system is colon cancer cell line HT29. The experiment in a line: Growth inhibition, sulforhodamine-based protein determination, HT29. The assay is classed as cell-based. The conditions noted are these: Homo sapiens, HT-29, 144 h; continuous exposure six days. The procedure:
as §1, §2

The subject of assay [6] is ovarian cancer cell line IGROV1. The experiment in a line: Growth inhibition, sulforhodamine-based protein determination, IGROV1. The assay is classed as cell-based. The conditions noted are these: Homo sapiens, IGROV-1, 144 h; continuous exposure six days. The procedure: as §1, §2
In assay [7] the test system is MMP-2. Put plainly: Extracellular level of MMP-2, MCF-10CA1a cells. The assay is classed as cell-based, human. The conditions noted are these: 5 μM. The procedure: The effect of SR13179 on the extracellular levels of TIMP-2 as well as MMP-2 was also investigated. Treatment of MCF-10CA1a cells with SR13179 at 5 μM concentration caused 5- to 8-fold increase in the secreted level of TIMP-2 and a 2-fold decrease in the extracellular level of MMP-2. However, extracellular TIMP-2 protein was always associated with MMP-2 protein, even after the samples were boiled for 10 min and separated under the denaturing conditions of gel electrophoresis.

For assay [8], the system named is lung cancer cell line A427. The experiment in a line: Growth inhibition, sulforhodamine-based protein determination, A427. The assay is classed as cell-based. The conditions noted are these: Homo sapiens, A-427, 144 h; continuous exposure six days. The procedure:
as §1, §2

Assay [9] deals with colon cancer cell line SW-620. The experiment in a line: Growth inhibition, sulforhodamine-based protein determination, SW-620. Particulars: Homo sapiens, SW-620, 144 h; continuous exposure six days. The assay is classed as cell-based. The protocol:
as §1, §2

The subject of assay [10] is colon cancer cell line HCT-116. The experiment in a line: Growth inhibition, sulforhodamine-based protein determination, HCT-116. The conditions noted are these: Homo sapiens, HCT-116, 144 h; continuous exposure six days. The assay is classed as cell-based. The procedure:
as §1, §2

For assay [11], the system named is TIMP-1. The experiment in a line: TIMP-1 protein expression, MCF-10-CA1a cells. The assay is classed as cell-based, human.
From the text: as §3
The effects of SR 13179 on the protein expression of TIMP-1, TIMP-2, and membrane-type 1 MMP (MT1-MMP) were studied. SR13179 induced the protein expression of TIMP-2 in a dose- and time-dependent manner. MCF-10-CA1a cells were treated with SR 13179 at 1, 3, or 5 μM concentrations for 48 h, or, alternatively, with […] SR 13179 for 8, 24, or 48 h. Cells were lysed and subjected to Western blotting.
The effect of SR13179 on the extracellular levels of TIMP-2 as well as MMP-2 was also investigated. Treatment of MCF-10CA1a cells with SR13179 at 5 μM concentration caused 5- to 8-fold increase in the secreted level of TIMP-2 and a 2-fold decrease in the extracellular level of MMP-2. […]

For assay [12], the system named is ovarian cancer cell line OVCAR-5. Put plainly: Growth inhibition, sulforhodamine-based protein determination, OVCAR-5. The format is cell-based. Particulars: Homo sapiens, OVCAR-5, 144 h; continuous exposure six days. The procedure:
as §1, §2

One may read the IC50 as the concentration that gives 50% inhibition. A high value points to weaker potency in that assay. As a reminder, the inhibition is how much of the control response was suppressed. Consider `COc1cc(C2CC(O)c3ccc4ccccc4c3O2)cc(OC)c1OC` (centres unmarked) [SR 13179, 2-(3,4,5-trimethoxyphenyl)-3,4-dihydro-2H-benzo[h]chromen-4-ol], for which the half-inhibitory concentration (IC50) in assay [1] came to 423 nM; in assay [3] it was 364 nM; in [5] it was 430 nM; in [6] it was 281 nM; in assay [8], 510 nM; in [9], 281 nM. Besides, the IC50 in assay [10] worked out at 310 nM; in assay [12], 1360 nM. Further, the Invasion in assay [2] (1 μM) was 10 % of Control. Further, the Migration in [2] (1 μM) was 70 % of Control. In assay [2] (Homo sapiens, read-out: inhibition of invasion through Matrigel), the inhibition at 1 µM worked out at 90%. The “cell-associated MMP-9 protein levels” value in assay [4] is “does not affect”. Also, the “decrease in the extracellular level of MMP-2” value in assay [7] turned out to be 2 fold. Also, in assay [11], the TIMP-1 protein levels entry is recorded as “no significant effect”.
